Assay results reported in patent US20230063703A1, “DRUG AND FOOD FOR TREATING AND/OR PREVENTING ENTERITIS AND/OR HEPATITIS” (priority 2020, published 2023).
Like-named read-outs stand apart in the source and are kept apart here.

What was measured:
[1] = tested on: DSS-induced colitis model mice; assay: Enteritis-inhibiting effect of single species D-amino acids in DSS-induced colitis model mice; format: in vivo, mice (B6CL57); details: single D-amino acid in drinking water 3 weeks, then 2% DSS; 8th day; compared with water containing all five D-amino acids
Procedure: The DAI scores were assigned for the following: diarrhea symptom (normal: 0, soft feces: 1, mild diarrhea: 2, moderate diarrhea: 3, severe diarrhea: 4); bloody stool symptom (normal: 0, mild bloody stool: 1, moderate bloody stool: 2, severe bloody stool: 3, severe bloody stool with anal bleeding: 4); and body weight reduction (None: 0, 1% to 5%: 1, 5% to 10%: 2, 10% to 20%: 3, ÷20%: 4), and the total values were calculated (minimum 0 points, maximum 12 points), for each mouse.

[2] = Blood D-serine concentration in mice given drinking water containing D-serine; format: in vivo; details: free access to drinking water containing 1% D-serine
From the text: The blood concentration of administered D-serine is preferably 5 nmol/mL or greater, more preferably 10 nmol/mL or greater and even more preferably 50 nmol/mL or greater. The D-serine blood concentration is also preferably 1 μmol/mL or lower, more preferably 0.5 μmol/mL or lower and even more preferably 0.1 μmol/mL or lower.

kidneys = details: cited from earlier work; for toxicity on the kidneys: rat, in vivo, ip; for amino acid excretion: after 2 hours

C[C@@H](N)C(=O)O [D-Ala, D-alanine]
DAI score [1]: equivalent to drinking water containing all five D-amino acids | body weight reduction suppressing effect [1]: equivalent to drinking water containing all five D-amino acids

N[C@H](CC(=O)O)C(=O)O [D-Asp, D-aspartic acid]
DAI score [1]: equivalent to drinking water containing all five D-amino acids | body weight reduction suppressing effect [1]: equivalent to drinking water containing all five D-amino acids

N[C@H](CCC(=O)O)C(=O)O [D-Glu, D-glutamic acid]
DAI score [1]: significantly inhibited enteritis more than the drinking water containing all five D-amino acids | body weight reduction suppressing effect [1]: significantly inhibited enteritis more than the drinking water containing all five D-amino acids

N[C@H](CO)C(=O)O [D-Ser, D-serine]
DAI score [1]: equivalent to drinking water containing all five D-amino acids | body weight reduction suppressing effect [1]: equivalent to drinking water containing all five D-amino acids | blood D-serine concentration [2]: 100 nmol/mL | toxicity on the kidneys (kidneys; 26 mg/kg): no toxicity | toxicity on the kidneys (kidneys; 267 mg/kg): toxicity of D-serine on the kidneys was exhibited | toxicity on the kidneys (kidneys; 800 mg/kg): toxicity of D-serine on the kidneys was exhibited | amino acid excretion (kidneys; rats, intraperitoneal, 26 mg/kg): no effect | amino acid excretion (kidneys; rats, intraperitoneal, 80 mg/kg): no effect | amino acid excretion (kidneys; rats, intraperitoneal, 267 mg/kg): significantly increased | amino acid excretion (kidneys; rats, intraperitoneal, 800 mg/kg): significantly increased | nephrotoxicity (kidneys; rats, intraperitoneal, doses such as 800 mg/kg, 400 mg/kg or 250 mg/kg): causes nephrotoxicity

N[C@H](Cc1c[nH]c2ccccc12)C(=O)O [D-Trp, D-tryptophan]
DAI score [1]: significantly inhibited enteritis more than the drinking water containing all five D-amino acids | body weight reduction suppressing effect [1]: significantly inhibited enteritis more than the drinking water containing all five D-amino acids
